Assay results published in BigSolDB 2.1.

CC1(N=C(O)c2ccccc2)CCC2CC1C(c1ccccc1)=[NH+]C2(C)C.[O-][Cl+3]([O-])([O-])[O-] (stereo not given)
solubility (mole fraction)
Conditions | 298.15 K | 303.15 K | 308.15 K | 313.15 K | 318.15 K
in 2-ethoxyethanol | 0.00256 | 0.00297 | 0.00348 | 0.0041 | 0.0048
in acetone | 0.00275 | 0.00308 | 0.00363 | 0.00425 | 0.00495
in acetonitrile | 0.00307 | 0.0035 | 0.00421 | 0.00488 | 0.00572
in acrylonitrile | 0.00592 | 0.00661 | 0.00743 | 0.00856 | 0.0104
in ethanol | 0.0015 | 0.00182 | 0.00223 | 0.00264 | 0.00316
in isopropanol | 0.000845 | 0.00103 | 0.00132 | 0.00163 | 0.00199
in methanol | 0.00289 | 0.00327 | 0.0038 | 0.00445 | 0.00534
in n-butanol | 0.000928 | 0.00113 | 0.00146 | 0.00178 | 0.00221
in n-propanol | 0.0013 | 0.0016 | 0.00193 | 0.00232 | 0.00288
in propionitrile | 0.00186 | 0.00215 | 0.00254 | 0.00305 | 0.00346
in propylene glycol | 0.0122 | 0.0132 | 0.0147 | 0.0164 | 0.0187
in water | 3.8e-05 | 5.7e-05 | 7.7e-05 | 9.9e-05 | 0.000115

CC(=O)NC1(C)CCC2CC1C(C)=NC2(C)C (stereo not given)
solubility (mole fraction)
Conditions | 298.15 K | 303.15 K | 308.15 K | 313.15 K | 318.15 K
in 2-ethoxyethanol | 0.00185 | 0.00217 | 0.00248 | 0.00282 | 0.00322
in acetone | 0.00359 | 0.00388 | 0.00411 | 0.00445 | 0.00493
in acetonitrile | 0.0257 | 0.0265 | 0.0275 | 0.0292 | 0.0305
in acrylonitrile | 0.00442 | 0.00458 | 0.00487 | 0.00528 | 0.00581
in ethanol | 0.00153 | 0.00184 | 0.00211 | 0.00244 | 0.00284
in isopropanol | 0.00134 | 0.00155 | 0.00182 | 0.00214 | 0.00243
in methanol | 0.00945 | 0.0103 | 0.0111 | 0.0122 | 0.0142
in n-butanol | 0.00138 | 0.00164 | 0.00191 | 0.00219 | 0.00257
in n-propanol | 0.00144 | 0.00171 | 0.00196 | 0.00228 | 0.00264
in propionitrile | 0.00392 | 0.00416 | 0.0044 | 0.00477 | 0.00526
in propylene glycol | 0.0197 | 0.0206 | 0.022 | 0.0232 | 0.0251
in water | 0.0012 | 0.00142 | 0.0016 | 0.00182 | 0.0021
